“And” between values parts separate entries of the source, which are not always exact repeats. Identical values can stand only once.
How the values were obtained:
[1] = system: L. amazonensis promastigotes; experiment: Antiproliferation assay: L. amazonensis promastigotes (24 h), resazurin; type: cell-based, Leishmania amazonensis (IFLA/BR/1967/PH8); settings: Leishmania amazonensis, 24 h of exposure, read-out: IC50
Experimental: Leishmania amazonensis promastigotes (IFLA/BR/1967/PH8) for the 24 h exposure test were cultivated in RPMI 1640, supplemented with 20% v/v heat inactivated fetal bovine serum (FBS) and incubated at 26°C until near the end of the log growth phase. Leishmania amazonensis (IFLA/BR/1967/PH8) and L. infantum (MCAN/BR/2008/1112) promastigotes used in the 72 h exposure test were cultivated in Warren’s medium (containing brain heart infusion- BHI plus hemin and folic acid), supplemented with 10% FBS, 0.1% of the antibiotics: 100 UI/mL penicillin G and 0.1 mg/mL streptomycin. Leishmania amazonensis (IFLA/BR/1967/PH8) transfected with the red fluorescent protein (RFP) gene was cultured in M199 medium (containing 0.1 mmol/L adenine, 40 mmol/L hepes, 0.0005% hemin and 0.0002% biotin), supplemented with 10% FBS, and 0.1% of the antibiotic. Parasites were maintained at 25°C in a BOD incubator.
Extracts and fractions were tested against L. amazonensis (IFLA/BR/1967/PH8) promastigote cells in a 96-well plate at a concentration of 10^6 cells/well. Each sample was solubilized in DMSO (<1%) since it was not soluble directly in the medium. Extracts were tested at 100 μg/mL and 50 μg/mL. […] Plates were read at 570 nm and 595 nm in a microplate reader (BiochromAsys UVM 340) after cell lysis with sodium dodecyl sulfate (SDS). Viability was calculated based on the equations described by Kulshrestha.

[2] = system: L. amazonensis amastigotes; experiment: L. amazonensis amastigotes assay (RFP parasites in peritoneal macrophages); type: cell-based, Leishmania amazonensis (IFLA/BR/1967/PH8)
Experimental: Peritoneal macrophages obtained from BALB/c mice were transferred to a 24-well plate (6x10^5 cells/well) in RPMI 1640 medium supplemented with 10% inactivated FBS and 20 mM L-glutamine, pH 7.2. The plate was incubated at 37°C in 5% CO2 for 24 h. After this period, macrophages were infected with L. amazonensis (IFLA/BR/1967/PH8) transfected with RFP in the stationary growth phase using a ratio 1:10 (macrophages/parasites) at 33°C for 4 h. The non-phagocytosed parasites were subsequently removed by extensive PBS wash, and samples added at non-toxic concentrations, in accordance with the cytotoxicity tests (100 μg/mL to 1.56 μg/mL) to determine the IC50 for the intracellular parasite. After 72 h, the supernatant was removed from the wells and 200 μL of deionized water added to each well to lyse the cell membrane. After lysis, the resulting supernatants were transferred to a black 96-well plate. The plate was read in a fluorescence spectrophotometer (FLx800, BioTek Instruments, Inc., Winooski, VT, USA) with 540/600 nm of excitation/emission. Wells containing macrophages infected with L. amazonensis (RFP) […] only were used as negative controls.

[3] = system: L. infantum amastigotes; experiment: L. infantum amastigotes assay (Giemsa, infection index); type: cell-based, Leishmania infantum
Experimental: Peritoneal macrophages (6 x 10^5 cells) were plated on round glass coverslips within 24-well plates in RPMI 1640 medium supplemented with FBS and 20 mM L-glutamine, pH 7.2, and incubated for 24 h at 37°C in 5% CO2. Stationary-phase promastigotes (6 x 10^6 cells, at a ratio of 10 parasites per macrophage) were then added to the wells, and cultures incubated for 24 h at 37°C in 5% CO2. Non-internalized parasites were removed by extensive PBS solution washing and infected macrophages subsequently treated with nontoxic concentrations of: compound 3 (6.25 μg/mL to 0.18 μg/mL) or miltefosine (10.0 μg/mL to 0.6 μg/mL, positive control) for 72 h at 37°C in 5% CO2. After compound exposure, cells were fixed with absolute ethanol and stained with Giemsa. A total of 200 macrophages were counted under a light microscope. The infection index was determined by the […] percentage of infected macrophages multiplied by the mean number of amastigotes per macrophage out of 200 macrophages.

[4] = system: L. amazonensis promastigotes; experiment: Neutral lipid quantification (Nile Red); type: cell-based, Leishmania amazonensis; settings: 24 h; 2 at 33.8 μM, 3 at 11.4 μM
Experimental: After 24 h of exposure, the parasites (1x10^7 cells/well) were stained with 10 μg/mL Nile Red (Sigma-Aldrich, St. Louis, MO, USA) in the dark for 20 min at 25°C. Fluorescence intensity was analysed in a spectrofluorometer (BioTek Instruments, Inc., Winooski, VT, USA) using 485/528 nm excitation/emission.

## C=C[C@@H](c1cc(CC=C(C)C)ccc1O)c1cc(CC=C(C)C)c(OC)cc1O [Compound 3, connarin]
[1]
  IC50: 20.5 µM
[2]; CC50 macrophages / IC50 L. amazonensis amastigotes
  SI (Selectivity Index): 6.3
[2]; Leishmania amazonensis, Peritoneal macrophage, intracellular, 72 h
  IC50: 1.13 µg/mL and 2.9 µM
[3]; L. infantum amastigotes
  SI (Selectivity Index): 2.4
[3]; Leishmania infantum, intracellular, 72 h
  IC50: 7.7 µM
[4]
  increase in neutral lipid levels in relation to the untreated control: 82.0%

Reference: article PMC7647111, “Antileishmanial compounds from Connarus suberosus: Metabolomics, isolation and mechanism of action” (PLoS ONE, 2020)
